US12559529B2, “NPY2 receptor agonists” (Boehringer Ingelheim International GmbH, priority 2019, dated 2026)

Tests used:
[1] = target: T1, Human Neuropeptide Y2 Receptor (Homo sapiens, UniProt P49146); assay: Radioligand binding competition assay (RLB)
T1 construct: purchased CHEMICON HTS066M
T1 sequence (P49146 1-381): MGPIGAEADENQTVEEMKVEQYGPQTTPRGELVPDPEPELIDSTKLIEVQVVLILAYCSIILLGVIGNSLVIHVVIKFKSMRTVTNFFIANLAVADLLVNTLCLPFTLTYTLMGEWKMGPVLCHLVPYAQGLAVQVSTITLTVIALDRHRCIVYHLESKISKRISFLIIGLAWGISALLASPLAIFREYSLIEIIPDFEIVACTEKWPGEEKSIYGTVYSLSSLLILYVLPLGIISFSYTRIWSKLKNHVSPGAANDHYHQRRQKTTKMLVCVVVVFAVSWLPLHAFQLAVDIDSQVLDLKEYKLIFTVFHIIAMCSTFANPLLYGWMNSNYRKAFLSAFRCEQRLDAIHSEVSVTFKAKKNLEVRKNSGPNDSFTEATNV
Outline: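 Membranes from cells expressing human Y2 receptor (0.5 μg protein/well) were incubated with radioligand and serially diluted peptides in 50 mM HEPES, 5 mM MgCl2, 1 mM CaCl2, 0.2% ovalbumin, pH 7.4, for 2 h at room temperature with shaking. Bound radioactivity was collected by filtration and counted; IC50 from sigmoidal nonlinear regression.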

human NPY1 receptor = target: T2, human NPY1 receptor (Homo sapiens, UniProt P25929); assay: HTRF cAMP Gi assay, hY1R; assay type: cell-based; settings: Table 4; CHO-K1 cells
T2 construct: expressed in transfected cells; host or cells: CHO-K1
T2 sequence (P25929 1-384): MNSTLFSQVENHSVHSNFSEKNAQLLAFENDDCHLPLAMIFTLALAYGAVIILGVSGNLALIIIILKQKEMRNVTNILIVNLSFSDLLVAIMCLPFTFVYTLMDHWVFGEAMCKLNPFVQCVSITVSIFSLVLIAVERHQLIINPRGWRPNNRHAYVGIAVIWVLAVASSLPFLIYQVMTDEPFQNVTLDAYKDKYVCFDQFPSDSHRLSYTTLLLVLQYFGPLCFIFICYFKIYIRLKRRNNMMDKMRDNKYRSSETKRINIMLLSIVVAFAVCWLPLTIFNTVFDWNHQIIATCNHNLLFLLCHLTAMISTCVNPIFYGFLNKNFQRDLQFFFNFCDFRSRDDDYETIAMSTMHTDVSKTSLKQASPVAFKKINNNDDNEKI
Protocol: Briefly, the production of intracellular cAMP will generate a competition between unlabeled cAMP and exogenously added d2-cAMP for anti-cAMP antibodies conjugated to cryptate. CHO-K1 cells stably expressing the human NPY1, NPY2, NPY4 and NPY5 receptors were used with the cells brought to life from a frozen stock immediately before assay performance. 2000 cells per well were applied for all four NPY receptor subtype assays. A 384-well format was used applying a total volume of 20 μl using 5 μl cells, 2.5 μl peptide agonist, 2.5 μl forskolin and 5 μl of each of the fluorophores. […] Concentration-response evaluation of compounds was performed with 11 concentrations of agonist peptides (covering 3 decades). EC50 values were calculated by nonlinear regression using sigmoid concentration-response with variable slope.

human NPY4 receptor = target: T3, human NPY4 receptor (Homo sapiens, UniProt P50391); assay: HTRF cAMP Gi assay, hY4R; assay type: cell-based; settings: Table 4; CHO-K1 cells
T3 construct: expressed in transfected cells; host or cells: CHO-K1

[2] = target: T1, Human Neuropeptide Y2 Receptor; assay: Activity (RLB) after incubation in solutions at different pH values; assay type: binding; settings: apparent Ki of filtrate after 2 h in buffer
Protocol: The filtration RLB assay was carried out in 96-well plates in a final volume of 100 μl per well. Freeze-dried test peptides were dissolved in 100% dimethyl sulfoxide (DMSO) to stock solutions of 1 mM and serial dilutions were performed in assay buffer (50 mM HEPES, 5 mM MgCl2, 1 mM CaCl2), pH 7.4) containing 0.2% ovalbumin. […] Next, 80 μL membranes (HTS066M, ChemiSCREEN™ Human Neuropeptide Y2 Receptor Membrane Preparation, CHEMICON) were added to each well to give a final protein concentration of 0.5 μg/well. The plates were sealed and incubated at room temperature for 2 hours in a plate shaker set at 400 rpm. The incubation was stopped by vacuum filtration onto 0.5% poly-ethylene amine (PEI) presoaked GF/C filters using a 96-well FilterMate™ harvester (Perkin Elmer) followed by four washes with 300 μl/well ice-cold wash buffer (50 mM HEPES, 500 mM NaCl, pH7.4). Filter plates were then dried for 60 min at room temperature and the bottom of the plates was sealed with backing tape UniFilter-96. Finally, 50 μl/well scintillation counter cocktail (Microscint20, Packard) was added and the radioactivity was counted in the Packard TopCount NXT scintillation counter. IC50 values (the half maximal inhibitory concentration of the agonist) were calculated by nonlinear regression analysis of sigmoidal dose-response curves.
Peptides (as TFA salts) were weighed out in a filter unit (Mini-UniPrep Syringeless Filter 0.45 μm, Whatman), and 0.1 M sodium diphosphate buffer at pH 6.4 or 7.4, respectively, or 0.2 M TRIS buffer at pH 8.3 was added to achieve 10 mg/ml final concentration. The peptide was (partially) dissolved by shaking the filter unit horizontally at approx. 400 rpm for 2 hours at room temperature. The sample was filtered to remove any insoluble particles.

human NPY2 receptor = target: T4, human NPY2 receptor (Homo sapiens, UniProt P49146); assay: HTRF cAMP Gi assay, hY2R
T4 sequence (P49146 1-381): T1 sequence (P49146 1-381)

human NPY5 receptor = target: T5, human NPY5 receptor (Homo sapiens, UniProt Q15761); assay: HTRF cAMP Gi assay, hY5R
T5 sequence (Q15761 1-445): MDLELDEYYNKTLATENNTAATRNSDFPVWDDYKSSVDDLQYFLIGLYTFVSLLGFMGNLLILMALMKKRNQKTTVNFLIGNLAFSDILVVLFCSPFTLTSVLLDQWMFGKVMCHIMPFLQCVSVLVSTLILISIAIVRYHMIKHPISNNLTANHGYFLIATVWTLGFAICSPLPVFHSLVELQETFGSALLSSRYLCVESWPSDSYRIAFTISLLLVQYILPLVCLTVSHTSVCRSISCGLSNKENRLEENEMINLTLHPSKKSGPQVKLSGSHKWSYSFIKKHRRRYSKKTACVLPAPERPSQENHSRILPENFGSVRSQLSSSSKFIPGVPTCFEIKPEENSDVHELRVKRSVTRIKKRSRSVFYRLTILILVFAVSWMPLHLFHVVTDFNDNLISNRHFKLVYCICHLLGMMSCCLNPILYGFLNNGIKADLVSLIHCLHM
Description: The Homogenous Time Resolved fluorescence (HTRF) technology optimized for Gi coupled receptors has thoroughly been described in Cisbio cAMP Gi kit manual. Briefly, the production of intracellular cAMP will generate a competition between unlabeled cAMP and exogenously added d2-cAMP for anti-cAMP antibodies conjugated to cryptate. CHO-K1 cells stably expressing the human NPY1, NPY2, NPY4 and NPY5 receptors were used with the cells brought to life from a frozen stock immediately before assay performance. 2000 cells per well were applied for all four NPY receptor subtype assays. A 384-well format was used applying a total volume of 20 μl using 5 μl cells, 2.5 μl peptide agonist, 2.5 μl forskolin and 5 μl of each of the fluorophores. […] Concentration-response evaluation of compounds was performed with 11 concentrations of agonist peptides (covering 3 decades). EC50 values were calculated by nonlinear regression using sigmoid concentration-response with variable slope.

[3] = Table 3, human 125I-PYY (1-36) 0.02 nM, Y2 receptor membranes, read-out: Ki
[4] = Table 8, from DMSO stock, read-out: hY2R RLB Ki (nM) DMSO
[5] = pH6.1-6.2, assumed 10 mg/ml, read-out: RLB 6 (pH6.1-6.2)
[6] = pH7.1-7.2, assumed 10 mg/ml, read-out: RLB 7 (pH7.1-7.2)
[7] = pH8.1-8.2, assumed 10 mg/ml, read-out: RLB 8 (pH8.1-8.2)

T3 sequence (P50391 whole entry): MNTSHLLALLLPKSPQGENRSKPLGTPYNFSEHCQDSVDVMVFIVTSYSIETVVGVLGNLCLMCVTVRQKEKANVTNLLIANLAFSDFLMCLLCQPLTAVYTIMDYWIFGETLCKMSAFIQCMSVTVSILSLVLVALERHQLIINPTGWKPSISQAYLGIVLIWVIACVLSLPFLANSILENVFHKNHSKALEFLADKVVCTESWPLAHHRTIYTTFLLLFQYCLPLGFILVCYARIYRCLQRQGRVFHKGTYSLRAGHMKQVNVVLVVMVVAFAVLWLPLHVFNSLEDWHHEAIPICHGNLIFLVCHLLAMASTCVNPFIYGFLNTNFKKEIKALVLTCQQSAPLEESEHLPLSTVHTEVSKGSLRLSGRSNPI

Row | Ki [1, 3] [nM] | Ki [1, 4] [nM] | EC50 (human NPY1 receptor) [nM] | EC50 (human NPY4 receptor) [nM] | Ki [2, 5] [nM] | Ki [2, 6] [nM] | Ki [2, 7] [nM] | EC50 (human NPY2 receptor) [nM] | EC50 (human NPY5 receptor) [nM] | SMILES
1 | 0.63 | 4.9 | > 5000 | > 5000 | 6.3 | 6.3 | 6.3 | 0.15 | > 5000 | CC[C@H](C)[C@H](NC(=O)[C@H](CCC(=O)O)NC(=O)[C@H](CCC(=O)O)NC(=O)[C@@H]1CCCN1C(=O)[C@H](CO)NC(=O)[C@H](C)NC(=O)[C@H](CC(=O)O)NC(=O)[C@H](CCC(=O)O)NC(=O)[C@H](CCC(=O)O)NC(=O)[C@@H]1CCCN1C(=O)[C@H](CCCCNC(=O)COCCOCCNC(=O)COCCOCCNC(=O)CC[C@H](NC(=O)CCCCCCCCCCCCCCCCC(=O)O)C(=O)O)NC(=O)[C@H](C)NC(=O)[C@@H]1CCCN1C(=O)[C@H](C)NC(=O)CC(C)C)C(=O)N[C@@H](CCC(N)=O)C(=O)N[C@@H](CCCNC(=N)N)C(=O)N[C@@H](Cc1ccc(O)cc1)C(=O)N[C@@H](Cc1ccc(O)cc1)C(=O)N[C@H](C(=O)N[C@@H](CO)C(=O)N[C@@H](CC(C)C)C(=O)N[C@@H](CCCNC(=N)N)C(=O)N[C@@H](Cc1c[nH]cn1)C(=O)N[C@@H](Cc1ccc(O)cc1)C(=O)N[C@@H](Cc1ccc(O)cc1)C(=O)N[C@@H](CC(N)=O)C(=O)N[C@@H](Cc1c[nH]c2ccccc12)C(=O)N[C@@H](CC(C)C)C(=O)N[C@H](C(=O)N[C@@H](CCCNC(=N)N)C(=O)N[C@@H](CCC(N)=O)C(=O)N[C@@H](CCCNC(=N)N)C(=O)N[C@@H](Cc1ccc(O)cc1)C(N)=O)[C@@H](C)O)C(C)C [Compound 23, N{alpha-4}-(3-methylbutanoyl)-N{epsilon-7}-[2-(2-{2-[2-(2-{2-[(4S)-4-carboxy-4-(17-carboxyheptadecanamido)butanamido]ethoxy}ethoxy)acetamido]ethoxy}ethoxy)acetamido]-[4A,6A,7K,9E,17I,18Q,22V,28Y,30W,31L]hPYY (4-36)]
2 | 0.24 | 2 | > 5000 | > 5000 | 3.4 | 3.1 | 2.5 | 0.119 | > 5000 | CC[C@H](C)[C@H](NC(=O)[C@H](CCC(=O)O)NC(=O)[C@H](CCC(=O)O)NC(=O)[C@@H]1CCCN1C(=O)[C@H](CO)NC(=O)[C@H](C)NC(=O)[C@H](CC(=O)O)NC(=O)[C@H](C)NC(=O)[C@H](CCC(=O)O)NC(=O)[C@@H]1CCCN1C(=O)[C@H](CCCCNC(=O)COCCOCCNC(=O)COCCOCCNC(=O)CC[C@H](NC(=O)CCCCCCCCCCCCCCCCC(=O)O)C(=O)O)NC(=O)[C@H](CCC(=O)O)NC(=O)[C@@H]1CCCN1C(=O)[C@H](C)NC(=O)CC(C)C)C(=O)N[C@@H](CCC(N)=O)C(=O)N[C@@H](CCCNC(=N)N)C(=O)N[C@@H](Cc1ccc(O)cc1)C(=O)N[C@@H](Cc1ccc(O)cc1)C(=O)N[C@H](C(=O)N[C@@H](CO)C(=O)N[C@@H](CC(C)C)C(=O)N[C@@H](CCCNC(=N)N)C(=O)N[C@@H](Cc1c[nH]cn1)C(=O)N[C@@H](Cc1ccc(O)cc1)C(=O)N[C@@H](Cc1ccc(O)cc1)C(=O)N[C@@H](CC(N)=O)C(=O)N[C@@H](Cc1c[nH]c2ccccc12)C(=O)N[C@@H](CC(C)C)C(=O)N[C@H](C(=O)N[C@@H](CCCNC(=N)N)C(=O)N[C@@H](CCC(N)=O)C(=O)N[C@@H](CCCNC(=N)N)C(=O)N[C@@H](Cc1ccc(O)cc1)C(N)=O)[C@@H](C)O)C(C)C [Compound 53, N{alpha-4}-(3-methylbutanoyl)-N{epsilon-7}-[2-(2-{2-[2-(2-{2-[(4S)-4-carboxy-4-(17-carboxyheptadecanamido)butanamido]ethoxy}ethoxy)acetamido]ethoxy}ethoxy)acetamido]-[4A,7K,9E,10A,17I,18Q,22V,28Y,30W,31L]hPYY (4-36)]
3 | 0.66 | 6 | > 5000 | > 5000 | 7.7 | 9.3 | 7.5 | 0.173 | > 5000 | CC(C)CC(=O)N[C@@H](C)C(=O)N1CCC[C@H]1C(=O)N[C@@H](C)C(=O)N[C@@H](CCCCNC(=O)COCCOCCNC(=O)COCCOCCNC(=O)CC[C@H](NC(=O)CCCCCCCCCCCCCCCCC(=O)O)C(=O)O)C(=O)N1CCC[C@H]1C(=O)N[C@@H](CCC(=O)O)C(=O)N[C@@H](CCC(=O)O)C(=O)N[C@@H](CC(=O)O)C(=O)N[C@@H](C)C(=O)N[C@H](C(=O)N1CCC[C@H]1C(=O)N[C@@H](CCC(=O)O)C(=O)N[C@@H](CCC(=O)O)C(=O)N[C@@H](CC(C)C)C(=O)N[C@@H](CCC(N)=O)C(=O)N[C@@H](CCCNC(=N)N)C(=O)N[C@@H](Cc1ccc(O)cc1)C(=O)N[C@@H](Cc1ccc(O)cc1)C(=O)N[C@H](C(=O)N[C@@H](CO)C(=O)N[C@@H](CC(C)C)C(=O)N[C@@H](CCCNC(=N)N)C(=O)N[C@@H](Cc1c[nH]cn1)C(=O)N[C@@H](Cc1ccc(O)cc1)C(=O)N[C@@H](Cc1ccc(O)cc1)C(=O)N[C@@H](CC(N)=O)C(=O)N[C@@H](Cc1c[nH]c2ccccc12)C(=O)N[C@@H](CC(C)C)C(=O)N[C@H](C(=O)N[C@@H](CCCNC(=N)N)C(=O)N[C@@H](CCC(N)=O)C(=O)N[C@@H](CCCNC(=N)N)C(=O)N[C@@H](Cc1ccc(O)cc1)C(N)=O)[C@@H](C)O)C(C)C)[C@@H](C)O [Compound 106, N{alpha-4}-(3-methylbutanoyl)-N{epsilon-7}-[2-(2-{2-[2-(2-{2-[(4S)-4-carboxy-4-(17-carboxyheptadecanamido)butanamido]ethoxy}ethoxy)acetamido]ethoxy}ethoxy)acetamido]-[4A,6A,7K,9E,13T,18Q,22V,28Y,30W,31L]hPYY (4-36)]
